Experimental data from publication PMC11002876, “KcsA-Kv1.x chimeras with complete ligand-binding sites provide improved predictivity for screening selective Kv1.x blockers” (The Journal of Biological Chemistry, 2024).
Where a SMILES comes first, the peptide text is derived from it.

Biological target: T1, KcsA-Kv1.1 T+F chimera (Streptomyces lividans, UniProt P0A334, R52A/G53E/A54E/P55A/G56E/A57S/Q58H/L59F/I60S/T61S/Y62I/R64D/L81M)
T1 sequence (P0A334 1-160 R52A/G53E/A54E/P55A/G56E/A57S/Q58H/L59F/I60S/T61S/Y62I/R64D/L81M): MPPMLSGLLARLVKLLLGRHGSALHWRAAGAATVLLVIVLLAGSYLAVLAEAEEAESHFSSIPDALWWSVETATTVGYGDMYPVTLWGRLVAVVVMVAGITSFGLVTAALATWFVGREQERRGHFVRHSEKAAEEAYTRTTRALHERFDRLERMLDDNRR
Experiment: Phage ELISA-binding assay, KcsA-Kv1.1 T+F
Set-up: species or system human Kv1.1 turret and filter in Streptomyces lividans KcsA
Conditions: toxin displayed on M13 phage; Fig. 8D
Method: Phage display test solutions were prepared according to routine phage display protocols ([62]). Phosphorylated and annealed oligonucleotides encoding the peptide construct were ligated into linearized pAS62 phagemid vector (https://patents.google.com/patent/WO2022144560A1/en) at a vector/insert ratio of 1:3. The final phagemid construct harbored a signal sequence followed by the peptide of interest, a linker sequence ([…]), and the C-terminal part of the P3 coat protein (amino acids: 216-424 of NP_510891.1). Chemically competent XL1-Blue E. coli cells (2022249, Agilent) were transformed with the ligation product and then streaked onto ampicillin (100 μg/ml) containing LB/Amp plates and incubated for 16 h at 37 °C. A few clones were sequenced, and a single colony with confirmed target sequence was inoculated into 3 ml 2 YT medium supplemented with 100 μg/ml ampicillin and incubated at 37 °C until the culture reached midlog phase. The culture was infected with M13KO7 helper phage (N0315S, New England Biolabs) (phage/cell ratio 10:1) and was incubated for 30 min at 37 °C. The 3 ml culture was transferred into 200 ml 2YT medium, supplemented with 100 μg/ml ampicillin and 25 μg/ml kanamycin, and incubated overnight at 37 °C. The overnight cell culture (200 ml) was pelleted by centrifugation at 8000g for 10 min in 400 ml centrifuge tubes at 4 °C. […] The particle concentrations of phage solutions were determined using a NanoDrop One C (Thermo Fisher Scientific) spectrophotometer. The phage particle concentration was assessed according to the formula: (A268–A320) × 5 × 10^12 particles/ml ([62]). […]
Phage stock solutions were diluted to working concentration with phage resuspension buffer supplemented with 2 mM DDM. […] Following blocking, the wells were washed 4× with washing buffer (300 μl TBS-Tween, 0.1% v/v) using a Wellwash Versa microplate washer (Thermo Fisher Scientific); then 50 μl phage solution (in TBS-BSA-Tween, 0.1% v/v, 2 mM DDM) at determined phage concentration was added to the wells and incubated for 1 h at room temperature on a horizontal shaker. […]

Structure (SMILES)	phage binding to KcsA-Kv1.1 T+F, in words
CC[C@H](C)[C@@H]1NC(=O)[C@@H]2CSSC[C@H](NC(=O)[C@H](CO)NC(=O)[C@@H](N)C(C)C)C(=O)N[C@@H]([C@@H](C)O)C(=O)NCC(=O)N[C@@H](CO)C(=O)N[C@@H](CCCCN)C(=O)N[C@@H](CC(=O)O)C(=O)N[C@@H](CSSC[C@@H](C(=O)N[C@@H](CCCCN)C(=O)N[C@H]3CSSC[C@@H](C(N)=O)NC(=O)CNC(=O)[C@H](Cc4ccc(O)cc4)NC3=O)NC(=O)[C@H](CO)NC(=O)[C@H](CCCCN)NC(=O)[C@H](CC(N)=O)NC1=O)C(=O)N[C@@H](Cc1ccc(O)cc1)C(=O)N[C@@H](C)C(=O)N1CCC[C@H]1C(=O)N[C@H]1CSSC[C@H](NC(=O)CNC(=O)[C@H]([C@@H](C)O)NC(=O)[C@H](CCC(N)=O)NC(=O)[C@H](CCCCN)NC(=O)[C@H](CCCNC(=N)N)NC1=O)C(=O)N1CCC[C@H]1C(=O)N[C@@H](CC(N)=O)C(=O)N[C@@H](C)C(=O)N[C@@H](CCCCN)C(=O)N2 [MTX, Maurotoxin] (HELM PEPTIDE1{V.S.C.T.G.S.K.D.C.Y.A.P.C.R.K.Q.T.G.C.P.N.A.K.C.I.N.K.S.C.K.C.Y.G.C.[am]}$PEPTIDE1,PEPTIDE1,3:R3-24:R3|PEPTIDE1,PEPTIDE1,9:R3-29:R3|PEPTIDE1,PEPTIDE1,13:R3-19:R3|PEPTIDE1,PEPTIDE1,31:R3-34:R3$$$V2.0; N-terminus and C-terminus assumed)	negligible binding
CC[C@H](C)[C@@H]1NC(=O)[C@@H](NC(=O)[C@H](CO)NC(=O)[C@@H](N)CCCNC(=N)N)CSSC[C@@H](C(=O)O)NC(=O)[C@H]([C@@H](C)O)NC(=O)CNC(=O)[C@@H]2CSSC[C@@H]3NC(=O)[C@H](CCC(N)=O)NC(=O)[C@H](Cc4ccccc4)NC(=O)[C@H](C)NC(=O)[C@H]([C@@H](C)O)NC(=O)[C@H](CSSC[C@H](NC(=O)[C@H](Cc4ccccc4)NC(=O)[C@H](CO)NC(=O)[C@H](CC(C)C)NC(=O)[C@H](CCCNC(=N)N)NC(=O)[C@H](Cc4ccc(O)cc4)NC(=O)[C@H](CCCCN)NC(=O)[C@H](CCSC)NC(=O)[C@H](CO)NC(=O)[C@H](Cc4c[nH]cn4)NC(=O)[C@H](CCCCN)NC3=O)C(=O)N[C@@H](CCCNC(=N)N)C(=O)N[C@@H](CCCCN)C(=O)N[C@@H]([C@@H](C)O)C(=O)N2)NC(=O)[C@H](CCCNC(=N)N)NC(=O)[C@H](CO)NC(=O)[C@H](CCCCN)NC(=O)[C@@H]2CCCN2C(=O)[C@H]([C@@H](C)CC)NC(=O)[C@H]([C@@H](C)O)NC(=O)[C@H](CC(=O)O)NC1=O [ShK, Stichodactyla toxin]	ShK > KTX1
CC[C@H](C)[C@H](NC(=O)[C@H](CCC(=O)O)NC(=O)[C@@H](NC(=O)CN)C(C)C)C(=O)N[C@@H](CC(N)=O)C(=O)N[C@H](C(=O)N[C@@H](CCCCN)C(=O)N[C@H]1CSSC[C@@H]2NC(=O)[C@H](CCCCN)NC(=O)CNC(=O)[C@H](Cc3ccccc3)NC(=O)[C@H](CCCNC(=N)N)NC(=O)[C@H](CCSC)NC(=O)CNC(=O)[C@H](C)NC(=O)[C@H](CC(=O)O)NC(=O)[C@H](CCCCN)NC(=O)[C@@H]3CSSC[C@@H](C(=O)N[C@H](C(=O)N4CCC[C@H]4C(=O)N[C@@H](CCCCN)C(=O)O)[C@@H](C)O)NC(=O)[C@H](Cc4c[nH]cn4)NC(=O)[C@H](CSSC[C@H](NC(=O)[C@H](CCC(N)=O)NC(=O)[C@@H]4CCCN4C(=O)[C@H](CO)NC(=O)CNC(=O)[C@H](CO)NC1=O)C(=O)N[C@@H](CC(C)C)C(=O)N[C@@H](CCCCN)C(=O)N1CCC[C@H]1C(=O)N3)NC(=O)[C@H](CCCCN)NC(=O)[C@H](CCCNC(=N)N)NC(=O)[C@H](CC(N)=O)NC(=O)[C@H](CCSC)NC2=O)C(C)C [KTX1, Kaliotoxin-1]	ShK > KTX1
